For assay [1], the system named is 786-0 (kidney carcinoma) cells. In words: sulforhodamine B (SRB) cytotoxicity assay, 786-0. Type of assay: cell-based. From the text: (§1) MCF7 (ATCC HTB-22, breast adenocarcinoma), 786-0 (ATCC CRL-1932, renal cell adenocarcinoma), PC-03 (ATCC CRL-1435, prostatic adenocarcinoma), HT-29 (ATCCHTB-38, colorectal adenocarcinoma), and HEP2 (ATCC CCL-23, laryngeal carcinoma) cells donated by Dr. João Ernesto de Carvalho (CPQBA – UNICAMP), and NIH/3T3 cells (ATCC CRL-1658, mouse embryonic fibroblast), purchased from the Rio de Janeiro Cell Bank, were used for the evaluation of cytotoxic activity. Cell maintenance and treatment were performed as described by Freshney. The sulforhodamine B (SRB) assay was carried out according to Brandão et al. and Bogo et al..
(§2) The selectivity index (SI) measures a compound’s ability to target a neoplastic cell line rather than a normal cell line, indicating its potential for use in clinical trials. In the present study, the SI of each substance was calculated as the quotient of its GI50 value for normal NIH/3T3 cells divided by the GI50 value for a neoplastic cell line. SI values greater than 3.0 were considered significant.
A general note: Sulforhodamine B stains cellular protein and so reports cell mass.

In assay [2] the test system is PC-03 (prostate carcinoma) cells. Briefly: sulforhodamine B (SRB) cytotoxicity assay, PC-03. Type of assay: cell-based.
From the text: as §1, §2

The test system of assay [3] is UACC-62 (human melanoma) cells. Briefly: sulforhodamine B (SRB) cytotoxicity assay, UACC-62. Type of assay: cell-based.
From the text: [Worded in the source for another cell line; this cell line is reported under the same test.] as §1, §2

In assay [4] the test system is UACC-62 (human melanoma) cells. Conditions: 3T3 vs UACC-62; ref Brandão et al. (2013); cited from earlier work.
Assay [5] has as its system HEP2 (laryngeal carcinoma) cells. Briefly: sulforhodamine B (SRB) cytotoxicity assay, HEP2. The class given is cell-based.
From the text: as §1, §2

Assay [6] deals with NIH/3T3 (mouse embryonic fibroblast) cells. Briefly: sulforhodamine B (SRB) cytotoxicity assay, NIH/3T3 normal cells. The note with it: Mus musculus, NIH3T3; NIH/3T3 normal cells, SRB assay; read-out: growth inhibition (GI50). The class given is cell-based.
From the text: as §1, §2

Assay [7] relates to HT-29 (colon carcinoma) cells. Briefly: sulforhodamine B (SRB) cytotoxicity assay, HT-29. Type of assay: cell-based.
From the text: as §1, §2

Assay [8] has as its system B16-F10 (murine melanoma) cells. Briefly: sulforhodamine B (SRB) cytotoxicity assay, B16-F10. Type of assay: cell-based.
From the text: [Worded in the source for another cell line; this cell line is reported under the same test.] as §1, §2

For assay [9], the system named is MCF7 (breast carcinoma) cells. Briefly: sulforhodamine B (SRB) cytotoxicity assay, MCF7. The class given is cell-based.
From the text: as §1, §2

Each structure is given as a SMILES string. Where two headings read alike, the source gives them in different places.

As usually defined, the GI50 is the concentration at which growth is held to half of that of the control. As for `COc1cccc2c1C(=O)c1c(O)c3c(c(O)c1C2=O)C[C@@](O)(C(=O)CO)C[C@@H]3O[C@H]1C[C@H](N)[C@H](O)[C@H](C)O1` [Doxorubicin, reference compound], the “selectivity index (SI)” value in [1] (GI50 on 3T3 cells divided by GI50 on 786-0) is recorded as 1.23; in [2] (GI50 on 3T3 cells divided by GI50 on PC-03), 16.0; in assay [3] (GI50 on 3T3 cells divided by GI50 on UACC-62), 4.5; in [4] it was 1.2; in [5] (GI50 on 3T3 cells divided by GI50 on HEP2), 0.84; in assay [7] (GI50 on 3T3 cells divided by GI50 on HT-29), 1.23. The “selectivity index (SI)” value in assay [8] (GI50 on 3T3 cells divided by GI50 on B16-F10) was 1.28; in [9] (GI50 on 3T3 cells divided by GI50 on MCF7), 6.4. The GI50 in [1] (Homo sapiens, 786-0 cells, SRB assay, read-out: growth inhibition (GI50)) was 430 nM; in assay [2] (PC-03 cells, SRB assay, read-out: growth inhibition (GI50)), 34 nM; in [3] (Homo sapiens, UACC-62 cells, SRB assay, read-out: growth inhibition (GI50)), 120 nM; in [5] (Homo sapiens, HEp-2, HEP2 cells, SRB assay, read-out: growth inhibition (GI50)), 650 nM; in assay [6], 550 nM; in assay [7] (Homo sapiens, HT-29 cells, SRB assay, read-out: growth inhibition (GI50)), 430 nM. The GI50 amounted to 430 nM in assay [8] (Mus musculus, B16-F10 cells, SRB assay, read-out: growth inhibition (GI50)) and 86 nM in assay [9] (Homo sapiens, MCF7 cells, SRB assay, read-out: growth inhibition (GI50)).

Source of the values: article PMC11539907, “Cytotoxicity of norstictic acid derivatives, a depsidone from Ramalina anceps Nyl” (Turkish Journal of Chemistry, 2024).
